Experimental data: ChEMBL document CHEMBL4020798, “Anti-inflammatory effects and corresponding mechanisms of cirsimaritin extracted from Cirsium japonicum var. maackii Maxim” (Bioorg Med Chem Lett, 2017)
Active and inactive are the calls of the source.

Experiments:
[1] = target: T1, Nitric oxide synthase, inducible (Mus musculus) (UniProt P29477); test: Inhibition of LPS-induced iNOS expression in mouse RAW264.7 cells at 5 to 10 ug/ml pretreated for 1 hr followed by LPS stimulation for 20 hrs by immunoblotting method; assay type: cell-based
T1 sequence (whole entry): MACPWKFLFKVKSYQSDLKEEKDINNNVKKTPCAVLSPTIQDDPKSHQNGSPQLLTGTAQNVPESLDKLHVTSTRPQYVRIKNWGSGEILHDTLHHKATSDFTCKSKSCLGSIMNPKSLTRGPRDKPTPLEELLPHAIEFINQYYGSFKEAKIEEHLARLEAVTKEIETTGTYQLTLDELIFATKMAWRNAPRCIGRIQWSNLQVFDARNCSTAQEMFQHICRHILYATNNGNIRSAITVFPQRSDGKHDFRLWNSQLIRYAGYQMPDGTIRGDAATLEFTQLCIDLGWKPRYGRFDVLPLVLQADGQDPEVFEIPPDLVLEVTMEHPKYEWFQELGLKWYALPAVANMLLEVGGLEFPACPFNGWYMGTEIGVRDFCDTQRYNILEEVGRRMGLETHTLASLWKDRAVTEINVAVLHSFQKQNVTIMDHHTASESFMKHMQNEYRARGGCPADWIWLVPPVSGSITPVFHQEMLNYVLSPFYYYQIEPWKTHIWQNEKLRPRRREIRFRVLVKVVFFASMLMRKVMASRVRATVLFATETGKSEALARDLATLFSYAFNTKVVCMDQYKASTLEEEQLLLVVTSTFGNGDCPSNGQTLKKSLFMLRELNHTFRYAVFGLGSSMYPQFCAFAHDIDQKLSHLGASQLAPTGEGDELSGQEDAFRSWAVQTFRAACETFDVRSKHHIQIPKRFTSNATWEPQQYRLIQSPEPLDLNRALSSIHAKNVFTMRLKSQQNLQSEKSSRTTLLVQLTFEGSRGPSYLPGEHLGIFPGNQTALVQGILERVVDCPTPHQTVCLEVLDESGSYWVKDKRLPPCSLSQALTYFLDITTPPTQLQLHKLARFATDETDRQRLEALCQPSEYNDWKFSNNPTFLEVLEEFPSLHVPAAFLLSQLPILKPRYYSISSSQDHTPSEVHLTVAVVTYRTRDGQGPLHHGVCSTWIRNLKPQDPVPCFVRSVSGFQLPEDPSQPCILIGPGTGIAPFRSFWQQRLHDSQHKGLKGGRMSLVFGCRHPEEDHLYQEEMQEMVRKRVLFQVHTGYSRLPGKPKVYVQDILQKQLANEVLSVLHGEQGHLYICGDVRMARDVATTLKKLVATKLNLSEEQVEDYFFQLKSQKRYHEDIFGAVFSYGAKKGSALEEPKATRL

Mus musculus [2] = organism: Mus musculus; test: Inhibition of ERK-phosphorylation in mouse RAW264.7 cells at 5 to 10 ug/ml preincubated for 1 hr followed by LPS-stimulation for 1 hr by Western blot analysis; assay type: cell-based
RAW264.7 [3] = test: Downregulation of iNOS mRNA expression levels in mouse RAW264.7 cells at 5 to 10 ug/ml preincubated for 1 hr followed by LPS-stimulation for 4 hrs by qRT-PCR method; assay type: functional, cell-based
RAW264.7 [4] = test: Cytotoxicity against mouse RAW264.7 cells assessed as decrease in cell viability at 1 to 12 ug/ml pretreated for 1 hr followed by LPS stimulation for 20 hrs by CCK8/EZ-cytox assay; assay type: cell-based; settings: raw264.7, 20 h
[5] = target: Protein c-Fos (Mus musculus) (UniProt P01101); test: Inhibition of c-fos-phosphorylation in mouse RAW264.7 cells preincubated for 1 hr followed by LPS-stimulation for 20 hrs by Western blot analysis; assay type: cell-based
Chain of Protein c-Fos (Mus musculus) (P01101 whole entry): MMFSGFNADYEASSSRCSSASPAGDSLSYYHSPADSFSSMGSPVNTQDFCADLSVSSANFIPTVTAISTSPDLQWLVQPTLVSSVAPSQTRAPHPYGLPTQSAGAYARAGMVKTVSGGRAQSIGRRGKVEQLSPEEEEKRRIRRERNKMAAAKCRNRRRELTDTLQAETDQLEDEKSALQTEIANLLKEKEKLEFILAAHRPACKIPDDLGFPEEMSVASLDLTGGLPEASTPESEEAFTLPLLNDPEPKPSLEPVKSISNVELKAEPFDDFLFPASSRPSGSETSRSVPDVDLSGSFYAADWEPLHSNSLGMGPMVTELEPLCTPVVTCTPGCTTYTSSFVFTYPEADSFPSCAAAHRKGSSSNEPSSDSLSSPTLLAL

[6] = target: MAP kinase p38 (Mus musculus) (UniProt P47811+O08911+Q9WUI1+Q9Z1B7); test: Inhibition of p38-phosphorylation in mouse RAW264.7 cells at 5 to 10 ug/ml preincubated for 1 hr followed by LPS-stimulation for 1 hr by Western blot analysis; assay type: cell-based
[7] = target: RAC-alpha serine/threonine-protein kinase (Mus musculus) (UniProt P31750); test: Inhibition of Akt-phosphorylation in mouse RAW264.7 cells at 5 to 10 ug/ml preincubated for 1 hr followed by LPS-stimulation for 1 hr by Western blot analysis; assay type: cell-based
Chain of RAC-alpha serine/threonine-protein kinase (Mus musculus) (P31750 whole entry): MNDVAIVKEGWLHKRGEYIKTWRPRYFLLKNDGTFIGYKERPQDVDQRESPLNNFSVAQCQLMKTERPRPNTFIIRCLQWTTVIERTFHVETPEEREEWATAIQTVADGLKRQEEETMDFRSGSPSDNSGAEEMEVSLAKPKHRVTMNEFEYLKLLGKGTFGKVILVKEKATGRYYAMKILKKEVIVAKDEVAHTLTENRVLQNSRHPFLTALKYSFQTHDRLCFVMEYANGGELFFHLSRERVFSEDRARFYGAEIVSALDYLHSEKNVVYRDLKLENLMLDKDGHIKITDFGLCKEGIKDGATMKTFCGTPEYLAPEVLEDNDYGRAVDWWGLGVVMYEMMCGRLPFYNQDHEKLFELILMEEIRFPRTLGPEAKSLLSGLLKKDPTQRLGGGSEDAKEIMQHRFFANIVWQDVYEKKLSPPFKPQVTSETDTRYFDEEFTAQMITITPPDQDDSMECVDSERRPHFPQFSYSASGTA

[8] = target: T2, NF-kappa-B inhibitor alpha (Mus musculus) (UniProt Q9Z1E3); test: Inhibition of IkappaBalpha phosphorylation in mouse RAW264.7 cells at 5 to 10 ug/ml preincubated for 1 hr followed by LPS-stimulation for 1 hr by Western blot method; assay type: cell-based
T2 sequence (whole entry): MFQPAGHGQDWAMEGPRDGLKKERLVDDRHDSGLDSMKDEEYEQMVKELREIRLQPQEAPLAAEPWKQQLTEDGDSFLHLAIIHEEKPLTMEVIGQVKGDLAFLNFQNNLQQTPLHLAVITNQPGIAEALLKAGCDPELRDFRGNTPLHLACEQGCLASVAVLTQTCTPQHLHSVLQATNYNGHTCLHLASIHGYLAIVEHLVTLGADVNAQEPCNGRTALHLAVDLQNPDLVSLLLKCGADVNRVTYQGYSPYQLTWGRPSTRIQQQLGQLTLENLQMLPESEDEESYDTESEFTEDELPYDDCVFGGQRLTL

[9] = target: T2, NF-kappa-B inhibitor alpha (Mus musculus); test: Inhibition of IkappaBalpha degradation in mouse RAW264.7 cells at 5 to 10 ug/ml preincubated for 1 hr followed by LPS-stimulation for 1 hr by Western blot method; assay type: cell-based
RAW264.7 [10] = test: Downregulation of IL-6 mRNA expression levels in mouse RAW264.7 cells at 5 to 10 ug/ml preincubated for 1 hr followed by LPS-stimulation for 4 hrs by qRT-PCR method; assay type: functional, cell-based
RAW264.7 [11] = test: Downregulation of TNFalpha mRNA expression levels in mouse RAW264.7 cells at 5 to 10 ug/ml preincubated for 1 hr followed by LPS-stimulation for 4 hrs by qRT-PCR method; assay type: functional, cell-based
[12] = target: Signal transducer and activator of transcription 3 (Mus musculus) (UniProt P42227); test: Inhibition of STAT3 phosphorylation at Y705 residue in mouse RAW264.7 cells preincubated for 1 hr followed by LPS-stimulation for 20 hrs by Western blot analysis; assay type: cell-based
Chain of Signal transducer and activator of transcription 3 (Mus musculus) (P42227 whole entry): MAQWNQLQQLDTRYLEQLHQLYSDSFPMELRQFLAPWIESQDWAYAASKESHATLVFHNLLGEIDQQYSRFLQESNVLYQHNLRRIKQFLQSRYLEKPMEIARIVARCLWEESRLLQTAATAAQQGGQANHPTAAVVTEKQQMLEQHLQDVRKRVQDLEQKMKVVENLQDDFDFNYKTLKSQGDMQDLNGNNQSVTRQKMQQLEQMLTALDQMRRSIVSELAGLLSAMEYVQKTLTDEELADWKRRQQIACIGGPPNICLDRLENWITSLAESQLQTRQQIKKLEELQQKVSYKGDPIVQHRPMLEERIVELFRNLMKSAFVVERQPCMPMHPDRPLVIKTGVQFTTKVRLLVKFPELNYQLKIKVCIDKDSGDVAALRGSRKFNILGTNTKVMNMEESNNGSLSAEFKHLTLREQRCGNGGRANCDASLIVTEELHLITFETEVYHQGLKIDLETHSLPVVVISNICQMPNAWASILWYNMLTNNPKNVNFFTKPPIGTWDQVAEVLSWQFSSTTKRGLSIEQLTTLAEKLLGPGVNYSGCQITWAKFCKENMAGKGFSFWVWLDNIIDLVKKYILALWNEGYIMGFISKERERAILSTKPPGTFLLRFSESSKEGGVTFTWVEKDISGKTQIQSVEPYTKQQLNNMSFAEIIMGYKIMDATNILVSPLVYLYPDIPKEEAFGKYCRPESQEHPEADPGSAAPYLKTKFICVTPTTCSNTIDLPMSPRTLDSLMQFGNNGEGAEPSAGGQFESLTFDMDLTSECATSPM

RAW264.7 [13] = test: Antiinflammatory activity in mouse RAW264.7 cells assessed as inhibition of LPS-induced IL-6 production preincubated for 1 hr followed by LPS addition for 20 hrs by sandwich ELISA; assay type: functional, cell-based
RAW264.7 [14] = test: Antiinflammatory activity in mouse RAW264.7 cells assessed as inhibition of LPS-induced TNFalpha release preincubated for 1 hr followed by LPS addition for 20 hrs by sandwich ELISA; assay type: functional, cell-based
[15] = target: Signal transducer and activator of transcription 3 (Mus musculus) (UniProt P42227); test: Inhibition of STAT3 phosphorylation at S727 residue in mouse RAW264.7 cells preincubated for 1 hr followed by LPS-stimulation for 20 hrs by Western blot analysis; assay type: cell-based
Mus musculus [16] = organism: Mus musculus; test: Inhibition of JNK-phosphorylation in mouse RAW264.7 cells at 5 to 10 ug/ml preincubated for 1 hr followed by LPS-stimulation for 1 hr by Western blot analysis; assay type: cell-based
RAW264.7 [17] = test: Cytotoxicity against mouse RAW264.7 cells assessed as decrease in cell viability incubated for 20 hrs by EZ-cytox assay; assay type: cell-based; settings: RAW264.7, 20 h
RAW264.7 [18] = test: Inhibition of LPS-induced NO production in mouse RAW264.7 cells at 2 to 10 ug/ml preincubated for 1 hr followed by LPS-stimulation measured after 20 hrs by Griess assay; assay type: functional, cell-based

COc1cc2oc(-c3ccc(O)cc3)cc(=O)c2c(O)c1OC [CIRSIMARITIN]
active: inhibition [1] | Activity (RAW264.7 [3]) Dose-dependent effect | inhibition [5] Dose-dependent effect | inhibition [7] | inhibition [8] | inhibition [9] | Activity (RAW264.7 [10]) Dose-dependent effect | Activity (RAW264.7 [11]) Dose-dependent effect | inhibition [12] Dose-dependent effect | inhibition (RAW264.7 [13]) Dose-dependent effect | inhibition (RAW264.7 [14]) Dose-dependent effect | inhibition [15] Dose-dependent effect | inhibition (RAW264.7 [18])
inactive: inhibition (Mus musculus [2]) | inhibition [6] | inhibition (Mus musculus [16])
111 µg/mL: IC50 (RAW264.7 [17])
Non-Toxic: Activity (RAW264.7 [4])
